Laboratory results from patent publication US11583547B2, “Chemotherapy drug-sensitizing method, agent composition and use thereof” (FU JEN CATHOLIC UNIVERSITY, priority 2020, dated 2023).

Columns and labels:
Format in all cases: cell-based
[1] = test system: BxPC-3 pancreatic cancer cells; experiment: western blot of cell apoptosis marker (cleaved PARP) after antagomiR-1976 transfection; conditions: BxPC-3, antagomiR-1976 transfection; FIG. 4A
Source text: (§1) FIGS. 4A and 4B are cell apoptosis charts of BxPC-3 and AsPC-1 pancreatic cancer cells with antagomiR-1976 transfection obtained from western blot analysis applied in the chemotherapy drug-sensitizing method in accordance with the preferred embodiment of the present invention. Referring now to FIG. 4A, by way of example, results of pancreatic cancer cell BxPC-3 applied in the chemotherapy drug-sensitizing method in accordance with the present invention are shown. Referring now to FIG. 4B, by way of example, results of pancreatic cancer cell AsPC-1 applied in the chemotherapy drug-sensitizing method in accordance with the present invention are shown.

[2] = test system: AsPC-1 pancreatic cancer cells; experiment: as above; conditions: AsPC-1, antagomiR-1976 transfection; FIG. 4B
Source text: as §1

pancreatic cancer cells = experiment: qPCR analysis of miR-1976 expression after gemcitabine induction; conditions: induction by gemcitabine; FIG. 1B
Source text: FIGS. 1A and 1B are microRNA expression charts released in extracellular vesicle and intracellular obtained from micro array analysis and qPCR analysis applied in the chemotherapy drug-sensitizing method in accordance with the preferred embodiment of the present invention.

5′-ACAGCAAGGAGGGCAGGAGG-3′ (listed as RNA, chemistry not given here) [antagomiR-1976]
amount of pancreatic cancer cell apoptosis marker (cleaved PARP) [1]: obviously increased | amount of pancreatic cancer cell apoptosis marker (cleaved PARP) [2]: obviously increased

Nc1ccn([C@@H]2O[C@H](CO)[C@@H](O)C2(F)F)c(=O)n1 [gemcitabine]
amount of miR-1976 in pancreatic cancer cells (pancreatic cancer cells): selectively increased
